Laboratory results reported in the supplement of paper PMC10307832.

How the values were obtained:
Test in all cases: relative viability (nuclei count vs DMSO), 5 days (fraction); higher = more cells survive
AZD8055 + Bortezomib = compound: COc1ccc(-c2ccc3c(N4CCOC[C@@H]4C)nc(N4CCOC[C@@H]4C)nc3n2)cc1CO [AZD8055] + CC(C)C[C@H](NC(=O)[C@H](Cc1ccccc1)NC(=O)c1cnccn1)B(O)O [Bortezomib] (partner 0.002 µM)
Outline: (§1)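 Relative viability was taken as the ratio of nuclei in treated wells to nuclei in vehicle wells. Lung cancer cell lines in 1536-well plates received compounds by pin tool one day after seeding, either one drug alone or a fixed anchor-drug dose plus five library-drug doses (not always all listed) in √10 steps. Nuclei were counted on 4× images after 5 days of treatment, and values are medians of duplicate plates.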

AZD8055 + Trametinib = compound: COc1ccc(-c2ccc3c(N4CCOC[C@@H]4C)nc(N4CCOC[C@@H]4C)nc3n2)cc1CO [AZD8055] + CC(=O)Nc1cccc(-n2c(=O)n(C3CC3)c(=O)c3c(Nc4ccc(I)cc4F)n(C)c(=O)c(C)c32)c1 [Trametinib] (partner 0.02 µM)
Outline: as §1

AZD8055 + Olaparib = compound: COc1ccc(-c2ccc3c(N4CCOC[C@@H]4C)nc(N4CCOC[C@@H]4C)nc3n2)cc1CO [AZD8055] + O=C(c1cc(Cc2n[nH]c(=O)c3ccccc23)ccc1F)N1CCN(C(=O)C2CC2)CC1 [Olaparib] (partner 8 µM)
Outline: as §1

AZD8055 + Pictilisib = compound: COc1ccc(-c2ccc3c(N4CCOC[C@@H]4C)nc(N4CCOC[C@@H]4C)nc3n2)cc1CO [AZD8055] + CS(=O)(=O)N1CCN(Cc2cc3nc(-c4cccc5[nH]ncc45)nc(N4CCOCC4)c3s2)CC1 [Pictilisib] (partner 1 µM)
Outline: as §1

Row | Cell Line | relative viability (AZD8055 + Bortezomib; first compound 0.01 µM) | relative viability (AZD8055 + Bortezomib; first compound 0.03162 µM) | relative viability (AZD8055 + Bortezomib; first compound 0.1 µM) | relative viability (AZD8055 + Bortezomib; first compound 0.3162 µM) | relative viability (AZD8055 + Bortezomib; first compound 1 µM) | relative viability (AZD8055 + Trametinib; first compound 0.01 µM) | relative viability (AZD8055 + Trametinib; first compound 0.03162 µM) | relative viability (AZD8055 + Trametinib; first compound 0.1 µM) | relative viability (AZD8055 + Trametinib; first compound 0.3162 µM) | relative viability (AZD8055 + Trametinib; first compound 1 µM) | relative viability (AZD8055 + Olaparib; first compound 0.01 µM) | relative viability (AZD8055 + Olaparib; first compound 0.03162 µM) | relative viability (AZD8055 + Olaparib; first compound 0.1 µM) | relative viability (AZD8055 + Olaparib; first compound 0.3162 µM) | relative viability (AZD8055 + Olaparib; first compound 1 µM) | relative viability (AZD8055 + Pictilisib; first compound 0.01 µM) | relative viability (AZD8055 + Pictilisib; first compound 0.03162 µM) | relative viability (AZD8055 + Pictilisib; first compound 0.1 µM) | relative viability (AZD8055 + Pictilisib; first compound 0.3162 µM) | relative viability (AZD8055 + Pictilisib; first compound 1 µM)
1 | NCI-H727 | 0.976 | 0.824 | 0.698 | 0.388 | 0.275 | 0.352 | 0.399 | 0.368 | 0.37 | 0.458 | 0.818 | 0.812 | 0.744 | 0.603 | 0.52 | 0.4 | 0.379 | 0.28 | 0.225 | 0.283
2 | NCI-H838 | 1.37 | 0.513 | 0.302 | 0.227 | 0.298 | 0.499 | 0.335 | 0.279 | 0.19 | 0.201 | 0.687 | 0.597 | 0.351 | 0.259 | 0.29 | 0.439 | 0.212 | 0.212 | 0.219 | 0.257
3 | NCI-H1355 | 1.23 | 1.06 | 0.9 | 0.309 | 0.315 | 0.379 | 0.321 | 0.29 | 0.211 | 0.211 | 0.694 | 0.622 | 0.553 | 0.269 | 0.266 | 0.419 | 0.374 | 0.269 | 0.251 | 0.238
4 | NCI-H1437 | 0.611 | 0.549 | 0.422 | 0.206 | 0.209 | 0.524 | 0.527 | 0.381 | 0.247 | 0.207 | 0.696 | 0.658 | 0.601 | 0.457 | 0.311 | 0.394 | 0.225 | 0.223 | 0.124 | 0.127
5 | NCI-H1650 | 0.299 | 0.182 | 0.215 | 0.208 | 0.214 | 0.724 | 0.544 | 0.502 | 0.394 | 0.261 | 0.985 | 0.865 | 0.726 | 0.417 | 0.472 | 0.551 | 0.575 | 0.479 | 0.393 | 0.36
6 | NCI-H1651 | 1.12 | 0.914 | 0.924 | 0.609 | 0.696 | 0.809 | 0.715 | 0.735 | 0.582 | 0.462 | 0.193 | 0.191 | 0.193 | 0.222 | 0.25 | 0.664 | 0.452 | 0.433 | 0.257 | 0.283
7 | NCI-H1666 | 0.932 | 0.65 | 0.62 | 0.483 | 0.469 | 0.887 | 0.877 | 0.877 | 0.797 | 0.793 | 0.875 | 0.81 | 0.771 | 0.714 | 0.674 | 0.333 | 0.491 | 0.347 | 0.272 | 0.38
